According to US9549928B2, “Muscarinic agonists as enhancers of cognitive flexibility” (THE UNIVERSITY OF TOLEDO, priority 2011, dated 2017):

What was measured:
Type in all cases: in vivo, rat
[1] = test system: male Long-Evans rats; assay: Salivation studies, salivary output over 60 minutes after i.p. administration
Procedure: For studies of salivation, male Long-Evans rats were purchased from Charles River Laboratories (Wilmington, Mass.) weighing between 250-425 g. Animals were kept in a vivarium on a 12-h light/dark cycle. Humidity was maintained at 30-70%, and temperature was maintained at 20-24° C. All procedures were approved by the Institutional Animal Care and Use Committee at Mithridion, Inc.
Salivation was quantified in rats following i.p. administration of CDD-0102A. Rats were first anesthetized with isoflurane, and then dosed with CDD-0102 by i.p. injection. Anesthesia was maintained by a nose cone that delivered 1.5-2.5% isoflurane in 500 ml/minute of oxygen. CDD-0102A was dissolved in phosphate-buffered saline and the injection volume was 2 ml/kg. The hind limbs of anesthetized animals were taped to the top of an incline (25° grade) so that the animal was oriented with its head near the bottom of the slope and its dorsal-surface oriented upward. Body temperature was monitored by a rectal thermometer, and maintained at 36-38° C. by a heating pad. The animal's nose was inserted into a nose cone for maintaining anesthesia while the entire mouth remained outside this nose cone. Pre-weighed filter paper (approximately 5×5 cm) was placed underneath the mouth to absorb the draining saliva. After 5 minutes, the saliva-wetted filter paper was weighed and replaced with fresh, pre-weighed filter paper. Total salivary output was calculated by subtracting the mass of the filter paper from the combined mass of paper plus saliva as collected over 60 minutes.

[2] = test system: male Long-Evans rats; assay: Place discrimination acquisition and switch to visual cue discrimination (strategy switching); conditions: i.p.
Procedure: A different group of rats was used for the discrimination learning and strategy switching tests from that used in the delayed spontaneous alternation test. Prior to testing, rats were food-restricted to maintain their weight at 85% of their free-feed weight, handled and trained in the maze to obtain half piece of Froot Loops® cereal in the cross-maze.
Following training, each rat was tested across two consecutive days. In the first experiment each rat had to learn a place discrimination. Rats were started in a pseudorandom manner from one of two different arms such that any start arm was not used more than 3 consecutive trials. The two start arms (“east” and “west”) were always opposite each other. A black plastic block was placed in the entrance of the maze arm opposite to that of the start arm, giving the maze a T-shape. Thus, the same two choice arms were used no matter what start arm was used. A rat was started in the stem arm with only one of the two choice arms baited. In the acquisition phase, one choice arm or place was designated the reinforced arm which contained a ½ piece of cereal reinforcement on each trial. In this phase, a rat was required to enter the reinforced arm containing a ½ piece of cereal. […]
In the switch phase of each experiment, the errors committed were separated into different categories and analyzed. […]

[3] = test system: male Long-Evans rats; assay: Visual cue discrimination acquisition and switch to place discrimination (strategy switching); conditions: 0.003 mg/kg i.p. before switch phase; vs controls
Procedure: In a separate experiment, the effect of CDD-0102A on initial learning of a visual cue strategy and switch to a place strategy was determined. All other aspects of the testing procedure were as described above. The treatment groups in this experiment were as follows: 1) saline—saline (n=8); 2) saline—CDD-0102A 0.003 mg/kg (n=7); 3) saline—CDD-0102A 0.03 mg/kg (n=7); 4) vehicle—CDD-0102A 0.1 mg/kg (n=8); 5) CDD-0102A 0.03 mg/kg-saline (n=7); or 6) CDD-0102A 0.01 mg/kg-saline (n=8).
These same types of errors were calculated in a similar manner for the experiment in which rats first learned a visual cue strategy and then switched to a place strategy.
In the spontaneous alternation task, a one-way analysis of variance was used to identify differences in percent alternation scores and number of arm entries across groups. Newman-Keuls post-hoc tests were used to compare treatment and control group measures. In the discrimination learning tests, one-way analyses of variance were used to identify differences in trials to criterion for acquisition and strategy switching. Separate analyses of variance were carried out to determine group differences in perseverative, regressive, and never-reinforced errors. Newman-Keuls post-hoc tests were used to compare differences between treatment groups.

[4] = test system: male Long-Evans rats; assay: Delayed spontaneous alternation in a 4-arm cross maze (30 second delay); conditions: i.p.
Procedure: For behavioral studies, male Long-Evans rats were purchased from Harlan (Indianapolis, Ind.) weighing between 325-375 g. Rats were individually housed in plastic cages (20.3 cm×20.3 cm×41.9 cm) in an environmentally controlled room (23° C., 30% humidity) on a 12 h:12 h light:dark cycle (lights on at 7:00 am). After at least four days to acclimate to the colony room, rats were handled for 10 minutes per day for four days to adjust to being handled during training and testing. At the same time rats began to be handled, rats were also food restricted to reduce their weight to 85-90% of their ad libitum weight. Rats had free access to water throughout the experiment. Animal care and use conformed to the guidelines of the National Institutes of Health Guide for the Care and Use of Laboratory Animals, and was approved by the Institutional Laboratory Animal Care and Use Committee at the University of Illinois at Chicago.
All behavioral testing occurred in a cross maze made of translucent black acrylic. Each arm measured 55 cm long, 10 cm wide, and 15 cm in height. A circular food well, with a diameter of 3.2 cm and a depth of 1.6 cm was placed 3 cm from the end of each arm. […]
In this test, rats were placed in the testing room 5 minutes prior to behavioral testing. […] The number and sequence of arm entries was recorded. An arm entry was recorded when all four paws entered an arm. […]

[5] = test system: normal rats; assay: Example 2: attentional set-shifting model, visual cue strategy shifted to place strategy; conditions: injection before acquisition (FIG. 8A)
Excerpt: The whole experiment was repeated with the rats learning first a visual cue strategy and then being switched to a place strategy.

[6] = test system: normal rats; assay: Example 2: attentional set-shifting model, place strategy shifted to visual cue strategy; conditions: injection before acquisition (FIG. 7A)
Excerpt: The beneficial effects of CDD-0102A in the rat model of cognitive flexibility are among the strongest evidence providing the scientific rationale for CDD-0102A in the treatment of PSP. The inventors have developed several models of cognitive flexibility, including the model of attentional set shifting involving an extradimensional set shift described here. The model involves a place-visual cue task. Rats first learned to use a place strategy—always to enter the same arm to receive a food reward. Criterion was set at 10 consecutive correct trials. The following day, rats had to inhibit the place strategy and to learn a new visual cue strategy to receive the reward. Local visual cues in the maze arms included a black board in one arm and white board in the other arm. The cues were switched between the choice arms randomly across trials so the same cue was not always in the same location. The rat had to choose the arm that contained a particular color cue (e.g., black) in order to receive the reward. The criterion again was set at 10 consecutive correct trials.
Rats received either saline (N=3) or CDD-0102A at various doses 30 minutes prior to testing.

salivary output over 60 minutes ([1]; 0.1 mg/kg i.p.): no salivation
salivary output over 60 minutes ([1]; 5 mg/kg i.p. (most salivation), mean ± SEM): 4,685±449 μl
salivary output over 60 minutes ([1]; 10 mg/kg i.p., compared with 5 mg/kg dose, P>0.5): not significantly different
separation between dose enhancing place-visual cue task (0.03 mg/kg ip) and dose producing half-maximum salivation ([1]; efficacious dose lower than dose producing half-maximum salivation): approximately 100 fold
lowest dose that produced salivation ([1]; i.p.): 0.3 mg/kg
SMILES: CCc1noc(C2CN=CNC2)n1 (stereo not shown) [CDD-0102A, 5-(3-ethyl-1,2,4-oxadiazol-5-yl)-1,4,5,6-tetrahydropyrimidine]
dose at which effect on strategy switching is maximal [2]: 0.03 mg/kg
trials to criterion, switch to place strategy [3]: no significant effect
dose at which significant improvement in memory function was observed [4]: ≥ 0.1 mg/kg
acquisition of the visual-cue strategy [5]: no effect
acquisition of the place-cue strategy [6]: no effect
